Laboratory results: the supplement of paper PMC7244745
Where a name gives a salt, the structure may show the parent alone. ± gives the uncertainty stated by the source.

Key:
[1] = tested on: Klebsiella pneumoniae ATCC 13882; assay: final OD630 (growth) after 24 h; higher = more bacterial growth; extreme values may be limits of the assay
Method: (§1)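 Klebsiella pneumoniae ATCC 13882 (start OD600 0.05) grown in M9U medium with 40 mM urea and phenol red plus inhibitor, in triplicate in 96-well plates. A557 and OD630 were read every 15 min for 24 h. Ureolysis was followed as the pH-related A557-A630: onset time, Gompertz-fit rate and final value. Growth was followed as OD630.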

[2] = tested on: Klebsiella pneumoniae ATCC 13882; assay: onset of ureolytic pH increase; higher = more delayed ureolysis (inhibition)
Method: as §1

[3] = tested on: Klebsiella pneumoniae ATCC 13882; assay: rate of pH (A557-A630) increase, Gompertz fit (10^-4 s-1); higher = faster ureolysis; extreme values may be limits of the assay
Method: as §1

[4] = tested on: Klebsiella pneumoniae ATCC 13882; assay: final pH-related absorbance (A557-A630) after 24 h (absorbance units); higher = more ureolysis; extreme values may be limits of the assay
Method: as §1

Structure (SMILES) | final OD630 ([1]; 0.1 mM) | final OD630 ([1]; 1 mM) | final OD630 ([1]; 10 mM) | onset of ureolytic pH increase ([2]; 0.1 mM) | onset of ureolytic pH increase ([2]; 1 mM) | onset of ureolytic pH increase ([2]; 10 mM) | rate of pH ([3]; 0.1 mM) | rate of pH ([3]; 1 mM) | rate of pH ([3]; 10 mM) | final pH-related absorbance ([4]; 0.1 mM) | final pH-related absorbance ([4]; 1 mM) | final pH-related absorbance ([4]; 10 mM) | other results
CCOC(=O)[C@@H](N)CS [L-cysteine ethyl ester hydrochloride] | 0.547 ± 0.018 | 0.299 ± 0.003 | 0.422 ± 0.045 | 7.359 ± 0.0667 h | > 15 h | > 15 h | 2.06 ± 0.11 | 0 | 0 | 0.394 ± 0.031 | 0 | 0 | –
COC(=O)[C@@H](N)CS [L-cysteine methyl ester hydrochloride] | 0.457 ± 0.0075 | 0.261 ± 0.0026 | – | 9.9208 ± 0.00583 h | > 15 h | – | 1.55 ± 0.16 | 0 | – | 0.566 ± 0.001 | 0 | – | –
N[C@@H](CS)C(=O)O [L-cysteine] | 0.431 ± 0.0025 | 0.334 ± 0.008 | 0.289 ± 0.01 | 15.87 ± 0.03 h | > 25 h | > 25 h | 1.656 ± 0.0059 | 0 | 0 | 0.225 ± 0.0018 | 0 | 0 | –
NC(=O)CC[C@H](N)C(=O)O [L-glutamine] | – | – | – | – | – | – | – | – | – | – | – | – | final OD630 ([1]; 0.009 mM): 0.515 ± 0.01; final OD630 ([1]; 0.091 mM): 0.549 ± 0.014; final OD630 ([1]; 9.06 mM): 0.531 ± 0.0093; onset of ureolytic pH increase ([2]; 0.009 mM): 9.446 ± 0.0567 h; onset of ureolytic pH increase ([2]; 0.091 mM): 9.264 ± 0.03 h; onset of ureolytic pH increase ([2]; 9.06 mM): 9.369 ± 0.065 h; rate of pH ([3]; 0.009 mM): 1.675 ± 0.015; rate of pH ([3]; 0.091 mM): 1.74 ± 0.052; rate of pH ([3]; 9.06 mM): 1.78 ± 0.018; final pH-related absorbance ([4]; 0.009 mM): 0.223 ± 0.0054; final pH-related absorbance ([4]; 0.091 mM): 0.219 ± 0.005; final pH-related absorbance ([4]; 9.06 mM): 0.222 ± 0.0029
N[C@@H](Cc1c[nH]cn1)C(=O)O [L-histidine] | 0.709 ± 0.008 | 0.706 ± 0.007 | 0.715 ± 0.026 | 6.141 ± 0.06 h | 6.853 ± 0.0217 h | 9.8 ± 0.0983 h | 3.03 ± 0.049 | 3.09 ± 0.27 | 1.12 ± 0.078 | 0.485 ± 0.022 | 0.506 ± 0.007 | 0.63 ± 0.016 | –
O.O.O.O.O.O.O.O=S(=O)([O-])[O-].[Mg+2] [Magnesium sulfate] | 0.553 ± 0.034 | 0.508 ± 0.0073 | 0.521 ± 0.0037 | 9.469 ± 0.0767 h | 9.51 ± 0.118 h | 9.25 ± 0.2 h | 2.16 ± 0.017 | 2.15 ± 0.021 | 2.01 ± 0.046 | 0.151 ± 0.0021 | 0.153 ± 0.0018 | 0.177 ± 0.0039 | –
CNC(N)=O [Methylurea] | 0.418 ± 0.0043 | 0.427 ± 0.0012 | 0.419 ± 0.0011 | 10.25 ± 0.0267 h | 10.25 ± 0.04 h | 10.38 ± 0.016 h | 1.54 ± 0.021 | 1.531 ± 0.014 | 1.551 ± 0.0041 | 0.17 ± 0.0022 | 0.174 ± 0.001 | 0.173 ± 0.001 | –
NC(=O)CN(CC(=O)O)CC(=O)O [N-(2-acetamido)iminodiacetic acid] | – | – | – | – | – | – | – | – | – | – | – | – | final OD630 ([1]; 0.0035 mM): 0.548 ± 0.048; final OD630 ([1]; 0.0351 mM): 0.519 ± 0.0043; final OD630 ([1]; 0.351 mM): 0.511 ± 0.0089; onset of ureolytic pH increase ([2]; 0.0035 mM): 9.5 ± 0.138 h; onset of ureolytic pH increase ([2]; 0.0351 mM): 9.373 ± 0.05 h; onset of ureolytic pH increase ([2]; 0.351 mM): 9.697 ± 0.0183 h; rate of pH ([3]; 0.0035 mM): 1.791 ± 0.016; rate of pH ([3]; 0.0351 mM): 1.805 ± 0.018; rate of pH ([3]; 0.351 mM): 1.77 ± 0.053; final pH-related absorbance ([4]; 0.0035 mM): 0.217 ± 0.0022; final pH-related absorbance ([4]; 0.0351 mM): 0.218 ± 0.0017; final pH-related absorbance ([4]; 0.351 mM): 0.219 ± 0.0049
O=C(O)CNc1ccc(O)cc1 [N-(4-Hydroxyphenyl)glycine] | – | – | – | – | – | – | – | – | – | – | – | – | final OD630 ([1]; 0.001 mM): 0.438 ± 0.009; final OD630 ([1]; 0.011 mM): 0.357 ± 0.005; final OD630 ([1]; 0.112 mM): 0; onset of ureolytic pH increase ([2]; 0.001 mM): 9.527 ± 0.0183 h; onset of ureolytic pH increase ([2]; 0.011 mM): 13.5 ± 0.25 h; onset of ureolytic pH increase ([2]; 0.112 mM): 0 min; rate of pH ([3]; 0.001 mM): 2.079 ± 0.0047; rate of pH ([3]; 0.011 mM): 2.81 ± 0.3; rate of pH ([3]; 0.112 mM): 0.632 ± 0.057; final pH-related absorbance ([4]; 0.001 mM): 0.183 ± 0.003; final pH-related absorbance ([4]; 0.011 mM): 0.107 ± 0.013; final pH-related absorbance ([4]; 0.112 mM): 0.331 ± 0.042
O=C1C=CC(=O)N1c1ccccc1 [N-phenylmaleimide] | – | – | – | – | – | – | – | – | – | – | – | – | final OD630 ([1]; 0.039 mM): 0.448 ± 0.07; final OD630 ([1]; 0.39 mM): 0; final OD630 ([1]; 3.9 mM): 0; onset of ureolytic pH increase ([2]; 0.039 mM): 13 ± 0.155 h; onset of ureolytic pH increase ([2]; 0.39 mM): > 25 h; onset of ureolytic pH increase ([2]; 3.9 mM): > 25 h; rate of pH ([3]; 0.039 mM): 1.67 ± 0.056; rate of pH ([3]; 0.39 mM): 0; rate of pH ([3]; 3.9 mM): 0; final pH-related absorbance ([4]; 0.039 mM): 0.136 ± 0.0029; final pH-related absorbance ([4]; 0.39 mM): 0; final pH-related absorbance ([4]; 3.9 mM): 0
CNC(=O)NC [N.N'-Dimethylurea] | 0.502 ± 0.0051 | 0.411 ± 0.018 | 0 | 9.871 ± 0.0467 h | 13.1 ± 0.483 h | 0 min | 1.69 ± 0.054 | 1.77 ± 0.022 | 0.0814 ± 0.0017 | 0.213 ± 0.004 | 0.197 ± 0.095 | 0.456 ± 0.0086 | –
O=C(O)C(=O)O [Oxalic acid] | 0.435 ± 0.0093 | 0.441 ± 0.0005 | 0.089 ± 0.0056 | 11.3 ± 0.015 h | 11.29 ± 0.0183 h | > 15 h | 1.52 ± 0.024 | 1.62 ± 0.013 | 0 | 0.334 ± 0.008 | 0.291 ± 0.0011 | 0 | –
NP(N)(=O)Oc1ccccc1 [Phenyl phosphorodiamidate] | – | – | – | – | – | – | – | – | – | – | – | – | final OD630 ([1]; 0.007 mM): 0.421 ± 0.0059; final OD630 ([1]; 0.07 mM): 0.4185 ± 0.004; final OD630 ([1]; 0.7 mM): 0.384 ± 0.01; onset of ureolytic pH increase ([2]; 0.007 mM): > 15 h; onset of ureolytic pH increase ([2]; 0.07 mM): > 15 h; onset of ureolytic pH increase ([2]; 0.7 mM): > 15 h; rate of pH ([3]; 0.007 mM): 0; rate of pH ([3]; 0.07 mM): 0; rate of pH ([3]; 0.7 mM): 0; final pH-related absorbance ([4]; 0.007 mM): 0; final pH-related absorbance ([4]; 0.07 mM): 0; final pH-related absorbance ([4]; 0.7 mM): 0
O=S(O)S(=O)(=O)O [Potassium disulfite] | 0.462 ± 0.012 | 0.531 ± 0.001 | 0.024 ± 0.002 | 7.117 ± 0.025 h | 8.65 ± 0.2 h | > 15 h | 1.766 ± 0.005 | 0.8111 ± 0.002 | 0 | 0.358 ± 0.002 | 0.356 ± 0.014 | 0 | –
[K+].[O]=[Mn](=[O])(=[O])[O-] [Potassium permanganate] | 0.444 ± 0.0025 | 0 | – | 11.35 ± 0.107 h | > 25 h | – | 1.65 ± 0.032 | 0 | – | 0.062 ± 0.0044 | 0 | – | –
Oc1ccccc1O [Pyrocatechol] | 0.425 ± 0.0055 | 0.462 ± 0.0061 | 0 | 11.07 ± 0.07 h | 14.6 ± 0.35 h | – | 1.789 ± 0.015 | 1.74 ± 0.016 | – | 0.397 ± 0.0008 | 0.369 ± 0.011 | – | –
